Literature values, collected in US6413988B1, “Prucalopride oral solution” (Janssen Pharmaceutica N.V., priority 1999, dated 2002).

What was measured:
5-HT2A receptors = 5-HT2A receptors (Homo sapiens, UniProt P28223)
5-HT4 receptors = 5-HT4 receptors (Homo sapiens, UniProt Q13639)
Chain of 5-HT4 receptors (Q13639 whole entry): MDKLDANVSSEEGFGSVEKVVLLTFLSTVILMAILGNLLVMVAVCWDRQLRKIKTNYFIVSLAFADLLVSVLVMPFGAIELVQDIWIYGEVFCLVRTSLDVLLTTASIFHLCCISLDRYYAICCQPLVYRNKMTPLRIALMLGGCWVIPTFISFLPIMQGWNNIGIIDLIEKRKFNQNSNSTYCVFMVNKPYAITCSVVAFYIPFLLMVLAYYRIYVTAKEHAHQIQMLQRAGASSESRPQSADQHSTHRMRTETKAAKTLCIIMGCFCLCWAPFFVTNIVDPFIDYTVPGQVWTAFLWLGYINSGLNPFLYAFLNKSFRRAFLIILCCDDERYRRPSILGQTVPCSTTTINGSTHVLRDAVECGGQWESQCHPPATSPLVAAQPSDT

Chain of 5-HT2A receptors (P28223 whole entry): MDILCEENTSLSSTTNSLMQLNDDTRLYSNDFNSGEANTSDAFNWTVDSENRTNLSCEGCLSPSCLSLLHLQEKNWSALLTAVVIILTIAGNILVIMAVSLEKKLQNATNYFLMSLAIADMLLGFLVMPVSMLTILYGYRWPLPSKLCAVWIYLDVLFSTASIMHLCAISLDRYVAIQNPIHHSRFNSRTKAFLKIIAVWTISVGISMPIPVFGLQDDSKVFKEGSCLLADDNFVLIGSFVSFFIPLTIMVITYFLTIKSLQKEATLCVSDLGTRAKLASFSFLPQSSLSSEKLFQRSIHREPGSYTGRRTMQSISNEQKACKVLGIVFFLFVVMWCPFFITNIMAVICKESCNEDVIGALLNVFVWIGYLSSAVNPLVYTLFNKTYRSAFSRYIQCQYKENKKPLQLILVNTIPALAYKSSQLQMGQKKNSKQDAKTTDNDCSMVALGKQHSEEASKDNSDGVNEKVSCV

- affinity for 5-HT2A receptors (5-HT2A receptors): no affinity
- affinity for 5-HT3 receptors (5-HT3 receptors): no affinity
- agonist of 5-HT4 receptors (5-HT4 receptors): potent and selective agonist
Structure (SMILES): COCCCN1CCC(NC(=O)c2cc(Cl)c(N)c3c2OCC3)CC1 [Prucalopride, 4-amino-5-chloro-2,3-dihydro-N-[1-(3-methoxypropyl)-4-piperidinyl]-7-benzofuran-carboxamide]
- colonic motility and defecation (colon; in animals): stimulates colonic motility and defecation
- giant contractions in the colon (colon; propagated over the length of the colon as a peristaltic wave): induces giant contractions in the colon
